Test results reported in ChEMBL document CHEMBL1201862, “PubChem BioAssay data set” (2004).
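Cells were grown in 96-well plates and exposed to each compound for 48 hours at five concentrations; endpoints were interpolated linearly between bracketing concentrations, or set to the highest concentration if not reached. Abbreviation: GI50, concentration required for 50% inhibition of growth.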 Activity calls are given as the source filed them. No stated cut-off is given here; in the data, active = GI50 up to about 1.1 µM and inactive = higher.

Columns and labels:
Test in all cases: NCI anticancer screen, dose series, 48 h
[1] = tested on: NCI-H226
[2] = tested on: K562
[3] = tested on: ACHN
[4] = tested on: HCT-15
[5] = tested on: HOP-92
[6] = tested on: KM12
[7] = tested on: SK-OV-3
[8] = tested on: HCC 2998
[9] = tested on: SK-MEL-5
[10] = tested on: DU-145
[11] = tested on: A549
[12] = tested on: SN12C
[13] = tested on: RPMI-8226
[14] = tested on: MCF7
[15] = tested on: UACC-257
[16] = tested on: OVCAR-4
[17] = tested on: T47D
[18] = tested on: OVCAR-8
[19] = tested on: SF-539

Compound	GI50 [1]	GI50 [2]	GI50 [3]	GI50 [4] [µM]	GI50 [5]	GI50 [6]	GI50 [7]	GI50 [8]	GI50 [9]	GI50 [10]	GI50 [11]	GI50 [12]	GI50 [13]	GI50 [14]	GI50 [15]	GI50 [16]	GI50 [17]	GI50 [18]	GI50 [19]
Nn1c(CCCCCCCCc2nnc(COc3ccc(Cl)cc3Cl)n2N)nnc1COc1ccc(Cl)cc1Cl	63.5 µM (inactive)	63.8 µM (inactive)	44.9 µM (inactive)	37.7	28.4 µM (inactive)	40 µM (inactive)	> 10 µM (inactive)	56.6 µM (inactive)	38.5 µM (inactive)	42.9 µM (inactive)	32.7 µM (inactive)	22.2 µM (inactive)	21.6 µM (inactive)	34.9 µM (inactive)	61.5 µM (inactive)	46.5 µM (inactive)	–	–	–
Brc1ccc2c(c1)C1=C(CO2)Cc2ccccc2O1	17.5 µM (inactive)	16.2 µM (inactive)	19.2 µM (inactive)	17.3	15.6 µM (inactive)	19 µM (inactive)	21.5 µM (inactive)	17.2 µM (inactive)	15 µM (inactive)	21.5 µM (inactive)	21.6 µM (inactive)	18.8 µM (inactive)	18.2 µM (inactive)	–	17.9 µM (inactive)	16.8 µM (inactive)	13.1 µM (inactive)	20.7 µM (inactive)	18.6 µM (inactive)
COC(=O)c1c(C)cccc1CC1Cc2c(C)cccc2C1=O (configuration not stated)	20.6 µM (inactive)	29.6 µM (inactive)	35.7 µM (inactive)	25.8	24.4 µM (inactive)	20.1 µM (inactive)	20.2 µM (inactive)	27.9 µM (inactive)	20.7 µM (inactive)	60.1 µM (inactive)	28.4 µM (inactive)	43.4 µM (inactive)	–	–	27.8 µM (inactive)	32.8 µM (inactive)	27.5 µM (inactive)	48.3 µM (inactive)	40.8 µM (inactive)
C/C=C\C(CC(=O)O)CN1CCC2=C(C1)C(S(=O)(=O)C(F)(F)F)c1ccccc12 (configuration not stated)	–	> 100 µM (inactive)	> 100 µM (inactive)	> 100	> 100 µM (inactive)	> 100 µM (inactive)	> 100 µM (inactive)	> 100 µM (inactive)	> 100 µM (inactive)	> 100 µM (inactive)	> 100 µM (inactive)	–	> 100 µM (inactive)	> 100 µM (inactive)	> 100 µM (inactive)	> 100 µM (inactive)	–	> 100 µM (inactive)	–
Nc1nc(N)c2nc(CNc3ccc(C(=O)NC(CCNC(=O)c4ccccc4C(=O)O)C(=O)O)cc3)cnc2n1 (configuration not stated)	> 100 µM (inactive)	0.01 µM (active)	0.01 µM (active)	0.01	0.0698 µM (active)	0.0168 µM (active)	> 100 µM (inactive)	–	< 0.0286 µM (active)	0.0339 µM (active)	0.01 µM (active)	0.01 µM (active)	0.083 µM (active)	0.01 µM (active)	–	> 100 µM (inactive)	–	0.01 µM (active)	< 0.0256 µM (active)
C=CCN(Cc1ccncc1)C(=O)C(O)(c1ccccc1)c1ccccc1	> 100 µM (inactive)	45.2 µM (inactive)	> 100 µM (inactive)	65.9	–	35.2 µM (inactive)	> 100 µM (inactive)	> 100 µM (inactive)	62.8 µM (inactive)	> 100 µM (inactive)	79.3 µM (inactive)	> 100 µM (inactive)	22 µM (inactive)	59.3 µM (inactive)	79.3 µM (inactive)	–	39.9 µM (inactive)	86.9 µM (inactive)	70.6 µM (inactive)
CNC(=O)N1CN(c2ccccc2)C2(CCN(Cc3ccccc3)CC2)C1=O	> 100 µM (inactive)	31.8 µM (inactive)	> 100 µM (inactive)	15	–	29.9 µM (inactive)	4.18 µM (inactive)	9.84 µM (inactive)	56.1 µM (inactive)	> 100 µM (inactive)	> 100 µM (inactive)	> 100 µM (inactive)	43.4 µM (inactive)	8.93 µM (inactive)	> 100 µM (inactive)	–	1.87 µM (inactive)	> 100 µM (inactive)	34.7 µM (inactive)
CCOC(=O)N(Cc1cccs1)c1cc(OC)c(OC)c(OC)c1	86.3 µM (inactive)	26.2 µM (inactive)	> 100 µM (inactive)	62.4	–	47.5 µM (inactive)	–	> 100 µM (inactive)	41.7 µM (inactive)	> 100 µM (inactive)	94.6 µM (inactive)	> 100 µM (inactive)	25.8 µM (inactive)	58.2 µM (inactive)	> 100 µM (inactive)	32.1 µM (inactive)	54.1 µM (inactive)	90.4 µM (inactive)	–
